The source of these data is article PMC6155273, “Antiprotozoal Activity of Triazole Derivatives of Dehydroabietic Acid and Oleanolic Acid” (Molecules : A Journal of Synthetic Chemistry and Natural …, 2017).

In brackets after ≈: the same amount, converted by molar mass. Where two headings read alike, the source gives them in different places.

Series [1] concerns L. donovani promastigotes. Further details: method as in PMID 19067375. The following applies: cited from earlier work.
For series [2], the system named is L. amazonensis promastigote. Set-up: method as in PMID 15070160. The following applies: cited from earlier work.
For series [3], the system named is L. amazonensis amastigote. Further details: method as in PMID 15070160. As to conditions: cited from earlier work.
Series [4] relates to axenically grown L. donovani amastigotes. The following applies: literature value, no reference given; read-out: IC50 against axenically grown L. donovani amastigotes; cited from earlier work.
A further series deals with T. cruzi epimastigotes. The series is described as follows: Antiepimastigote activity, T. cruzi CL-B5 lacZ (CPRG). Format: cell-based, Trypanosoma cruzi. The following applies: Trypanosoma cruzi, clone CL-B5, 72 h. Here is the method:
For in vitro studies of T. cruzi, the clone CL-B5 was used (donated by Faculty of Pharmacy, Complutense University, Madrid, Spain). Parasites were stably transfected with the Escherichia coli β-galactosidase gene (lacZ). Epimastigotes were grown at 28 °C in liver infusion tryptose broth (Difco, Detroit, MI, USA) with 10% fetal bovine serum (FBS) (Gibco, Carlsbad, CA, USA), penicillin (Ern S.A., Barcelona, Spain), and streptomycin (Reig Jofré S.A., Barcelona, Spain), as described previously, and harvested during the exponential growth phase. Briefly, the screening assay was performed in 96-well microplates (Sarstedt, Inc., Newton, NC, USA) with cultures that had not reached the stationary phase. Epimastigotes were seeded at 2 × 10^5 parasites/mL in 200 µL growth media. The plates were then incubated with the respective compounds at 28 °C for 72 h; afterwards, 50 µL of chlorophenol red-β-D-galactopyranoside (CPRG) solution was added, resulting in a final concentration of 200 µM. The plates were incubated at 37 °C for an additional 4 h and then read at 595 nm. Each concentration was tested in triplicate. The efficacy of each compound was estimated by calculating the IC50 values. These values were calculated by the sigmoidal dose–response curve adjustment using the statistical software program Graph-Pad Prims 3.0 (GraphPhad, San Diego, CA, USA). Benznidazole was used as the reference drug.

Series [5] concerns L. braziliensis, L. amazonensis, and L. infantum promastigotes. Further details: method as in PMID 26772973. The following applies: read-out: IC50 against promastigotes of three Leishmania species; cited from earlier work.
The test system of series [6] is L. braziliensis promastigotes. The series is described as follows: Leishmanicidal activity on L. braziliensis promastigotes (resazurin). Format: cell-based, Leishmania braziliensis. The following applies: Leishmania braziliensis, 48 h, read-out: Leishmanicidal Activity on Promastigotes, L. braziliensis, IC50. How it is done: (§1) Culture of L. braziliensis (MHOM/BR/75/M2904), and L. infantum (MHOM/FR/91/LEM2259V) was obtained from the Facultad de Farmacia (Universidad Complutense de, Madrid, Spain). The maintenance of the strains, the form of cultivation, and the isolation of shape promastigota were performed following the procedures described by Roldos et al.. The promastigotes were grown at 22 °C in Schneider’s Drosophila medium supplemented with 20% FBS. The assay was performed using a modification of a previous method. Promastigotes (2 × 10^6 parasites/well) were cultured in 96-well plastic plates. Compounds were dissolved in dimethylsulfoxide (DMSO). Different dilutions of the compounds with a final volume up to 200 µL were added. After 48 h at 26 °C, 20 µL of a 2 mM resazurin solution was added, and the oxidation-reduction was quantified at 570 and 600 nm. The solution of resazurin was prepared at 2.5 mM in phosphate buffered solution (PBS), pH 7.4, and filtered through 0.22 µm prior to use. All tests were carried out in triplicate. Resazurin sodium salt was obtained from Sigma-Aldrich (St. Louis, MO, USA) and stored at 4 °C protected from light. The efficacy of each compound was estimated by calculating the IC50 values.
On the technique in general: Alamar Blue is a resazurin reagent that responds to reducing activity.

Series [7] relates to L. infantum promastigotes. The series is described as follows: Leishmanicidal activity on L. infantum promastigotes (resazurin). Format: cell-based, Leishmania infantum. The following applies: Leishmania infantum, 48 h, read-out: Leishmanicidal Activity on Promastigotes, L. infantum, IC50. Here is the method: as §1
In series [8] the test system is L. braziliensis, L. amazonensis, and L. infantum amastigote. Set-up: method as in PMID 26772973. The following applies: read-out: IC50 against amastigote of three Leishmania species; cited from earlier work.
A short description of series [9]: Cytotoxicity on NCTC-Clone 929 fibroblasts (resazurin). Format: cell-based. The following applies: mouse. Here is the method:
The cell line used was NCTC-Clone 929, which was grown in Minimal Essential Medium (Sigma) supplemented with 10% heat-inactivated FBS, penicillin G (100 U/mL), and streptomycin (100 µg/mL). Cell cultures were maintained at 37 °C in a humidified 5% CO2 atmosphere. The procedure for cell viability measurement was evaluated with resazurin by a colorimetric method. The cells were plated in 96-microtiter plates at 3 × 10^4 cells per well in a 100 µL growth medium. The cells were grown overnight at 37 °C, 5% CO2. Thereafter, the medium was removed and the compounds were added in a 200 µL medium for 24 h. After incubation, 20 µL of a 2 mM resazurin solution was added to each well. The plates were incubated for 3 h to allow optimal oxidation-reduction. The reduction of resazurin was determined by dual wavelength absorbance measurement at 490 and 595 nm. Background was subtracted. Each concentration was assayed three times. Medium and drug controls were used in each test as blanks.

For `CC(C)c1cc2c(cc1O)[C@@]1(C)CCCC(C)(C)[C@@H]1CC2` [ferruginol], in series [1], the “IC50 against L. donovani promastigotes” value was 3.5 µg/mL (≈ 12.2 µM) and the “IC90 against L. donovani promastigotes” value is 7.0 µg/mL (≈ 24.4 µM).

For `CC(C)c1c(O)ccc2c1CC[C@H]1C(C)(C)CCC[C@]21C` [totarol], in [1], the “IC50 against L. donovani promastigotes” value was 3.5 µg/mL (≈ 12.2 µM) and the “IC90 against L. donovani promastigotes” value was 6.9 µg/mL (≈ 24.1 µM).

In the case of `C[C@H]1[C@H](C)CC[C@]2(C(=O)O)CC[C@]3(C)C(=CC[C@@H]4[C@@]5(C)CC[C@H](O)C(C)(C)[C@@H]5CC[C@]43C)[C@H]12` [Ursolic acid], the “IC50 against promastigote stage of L. amazonensis” value in [2] was 5 µg/mL. For the same compound, in series [3], the “IC50 against amastigote stage of L. amazonensis” value was 27 µg/mL.

The IC50 is the midpoint of a concentration-inhibition curve. `COc1c(C(C)C)cc2c(c1O)[C@@]1(C(=O)O)CCCC(C)(C)[C@@H]1CC2` [12-methoxycarnosic acid]: the IC50 in series [4] is 0.75 µM.

On to `CC1(C)CC[C@]2(C(=O)O)CC[C@]3(C)C(=CC[C@@H]4[C@@]5(C)CC[C@H](O)C(C)(C)[C@@H]5CC[C@]43C)[C@@H]2C1` [OA, Oleanolic acid], for which the “IC50 against promastigote stage of L. amazonensis” value in [2] was 10 µg/mL. Moreover, the IC50 was greater than 256 µg/mL in the series with T. cruzi epimastigotes; 30 to 66 µM in series [5]; greater than 256 µg/mL in series [6]; greater than 256 µg/mL in series [7]; 38 to 69 µM in series [8]. Besides, in series [3], the “IC50 against amastigote stage of L. amazonensis” value was 11 µg/mL.

As for `CC(C)c1ccc2c(c1)CCC1[C@](C)(COC(=O)CCc3cn(Cc4ccccc4)nn3)CCC[C@]21C` (stereo partly drawn) [Compound 7], the IC50 (with T. cruzi epimastigotes; in series [6]; in [7]) was greater than 256 µg/mL throughout. In [9], this compound registered an IC50 at 24 h greater than 256 µg/mL.

Take `COc1ccc(-n2cc(CCC(=O)O[C@H]3CC[C@@]4(C)C(CC[C@]5(C)C4CC=C4[C@@H]6CC(C)(C)CC[C@]6(C(=O)O)CC[C@]45C)C3(C)C)nn2)cc1` (stereo partly drawn) [Compound 23]: the IC50 (in the series with T. cruzi epimastigotes; in [6]; in series [7]) was greater than 256 µg/mL each time. Besides, the IC50 at 24 h in series [9] was greater than 256 µg/mL.

On to `CC1(C)CC[C@]2(C(=O)O)CC[C@]3(C)C(=CCC4[C@@]5(C)CC[C@H](OC(=O)CCc6cn(-c7ccccc7)nn6)C(C)(C)C5CC[C@]43C)[C@@H]2C1` (stereo partly drawn) [Compound 21], for which the IC50 (in the series with T. cruzi epimastigotes; in series [6]; in series [7]) was greater than 256 µg/mL each time. This compound also came in with an IC50 at 24 h in series [9] greater than 256 µg/mL.

As to `CC(C)c1ccc2c(c1)CCC1[C@](C)(COC(=O)CCc3cn(CSc4ccccc4)nn3)CCC[C@]21C` (stereo partly drawn) [Compound 9], the IC50 (with T. cruzi epimastigotes; in [6]; in series [7]) was greater than 256 µg/mL in each case. In series [9], this compound came in with an IC50 at 24 h greater than 256 µg/mL.

With `COc1ccc(-n2cc(CCCCC(=O)OC[C@]3(C)CCC[C@]4(C)c5ccc(C(C)C)cc5CCC34)nn2)cc1` (stereo partly drawn) [Compound 12], the IC50 (in the series on T. cruzi epimastigotes; in series [6]; in series [7]) was greater than 256 µg/mL throughout. The compound also gave a 50% inhibitory concentration (IC50) at 24 h in series [9] greater than 256 µg/mL.

In the case of `Cc1ccc(S(=O)(=O)n2cc(CCCCC(=O)OC[C@]3(C)CCC[C@]4(C)c5ccc(C(C)C)cc5CCC34)nn2)cc1` (stereo partly drawn) [Compound 16], the IC50 in the series with T. cruzi epimastigotes was determined as 199 µg/mL (≈ 336 µM); in series [6] (promastigotes) it was 71 µg/mL (≈ 120 µM); in [7] (promastigotes), 73 µg/mL (≈ 123 µM). For the same compound, in series [9], half-maximal inhibition (IC50 at 24 h) required 129 µg/mL (≈ 218 µM).

For the compound `Cc1ccc(S(=O)(=O)n2cc(CCCC(=O)O[C@H]3CC[C@@]4(C)C(CC[C@]5(C)C4CC=C4[C@@H]6CC(C)(C)CC[C@]6(C(=O)O)CC[C@]45C)C3(C)C)nn2)cc1` (stereo partly drawn) [Compound 31], the results for the IC50 (with T. cruzi epimastigotes; in series [6]; in series [7] (promastigotes)) were greater than 256 µg/mL, greater than 256 µg/mL and 128 µg/mL (≈ 171 µM), respectively. Further, the 50% inhibitory concentration (IC50) at 24 h in series [9] was greater than 256 µg/mL.

`COC(=O)[C@]12CCC(C)(C)C[C@H]1C1=CCC3[C@@]4(C)CC[C@H](OC(=O)CCc5cn(-c6ccc(OC)cc6)nn5)C(C)(C)C4CC[C@@]3(C)[C@]1(C)CC2` (stereo partly drawn) [Compound 24]: the IC50 (in the series on T. cruzi epimastigotes; in [6]; in [7]) was greater than 256 µg/mL in each case. In [9], this compound showed an IC50 at 24 h greater than 256 µg/mL.

In the case of `CC1(C)CC[C@]2(C(=O)O)CC[C@]3(C)C(=CCC4[C@@]5(C)CC[C@H](OC(=O)CCc6cn(CSc7ccccc7)nn6)C(C)(C)C5CC[C@]43C)[C@@H]2C1` (stereo partly drawn) [Compound 29], the 50% inhibitory concentration (IC50) (in the series on T. cruzi epimastigotes; in [6]; in series [7]) was greater than 256 µg/mL in each case. The IC50 at 24 h in series [9] is greater than 256 µg/mL.

Turning to `Cc1ccc(S(=O)(=O)n2cc(CCC(=O)O[C@H]3CC[C@@]4(C)C(CC[C@]5(C)C4CC=C4[C@@H]6CC(C)(C)CC[C@]6(C(=O)O)CC[C@]45C)C3(C)C)nn2)cc1` (stereo partly drawn) [Compound 27], the IC50 with T. cruzi epimastigotes was 43 µg/mL (≈ 58.6 µM); in [6] (promastigotes), greater than 256 µg/mL; in [7] (promastigotes), greater than 256 µg/mL. The compound further registered an IC50 at 24 h in series [9] greater than 256 µg/mL.

As for `C#CCCC(=O)O[C@H]1CC[C@@]2(C)C(CC[C@]3(C)C2CC=C2[C@@H]4CC(C)(C)CC[C@]4(C(=O)O)CC[C@]23C)C1(C)C` (stereo partly drawn) [Compound 17], the IC50 in the series on T. cruzi epimastigotes was 252 µg/mL (≈ 469 µM); in series [6] (promastigotes), greater than 256 µg/mL; in [7] (promastigotes) it was greater than 256 µg/mL. In series [9], this compound gave an IC50 at 24 h of 196 µg/mL (≈ 365 µM).

For `CC(C)c1ccc2c(c1)CCC1[C@](C)(C(=O)OCCc3cn(-c4ccccc4)nn3)CCC[C@]21C` (stereo partly drawn) [Compound 2], the IC50 (in the series with T. cruzi epimastigotes; in series [6]; in series [7]) was greater than 256 µg/mL in each case. For the same compound, in series [9], the IC50 at 24 h was greater than 256 µg/mL.

Consider `CC(C)c1ccc2c(c1)CCC1[C@](C)(C(=O)OCCc3cn(CSc4ccccc4)nn3)CCC[C@]21C` (stereo partly drawn) [Compound 4], for which the IC50 turned out to be 61 µg/mL (≈ 118 µM) in the series with T. cruzi epimastigotes, 64 µg/mL (≈ 124 µM) in series [6] (promastigotes) and 64 µg/mL (≈ 124 µM) in series [7] (promastigotes). The compound further gave an IC50 at 24 h in series [9] of 189 µg/mL (≈ 365 µM).
